These results are taken from patent publication US6448273B1, “Orally active iron (III) chelators” (BTG International Limited, priority 1997, dated 2002).

Where a name gives a salt, the structure may show the parent alone. Read-outs that look alike come from different tables or passages of the source.

Data set [1] is described as follows: Iron (III) complex stability constant Logβ3. Type of data set: physicochemical.
Data set [2] is described as follows: Iron III Mobilisation Efficacy Assay in Rat: Oral Administration. The data set is classed as in vivo. The note with it: for Efficacy: iron mobilisation less control. Here is the method: Control rats were given an equivalent volume of water. The rats were placed in individual metabolic cages and their urine and faeces collected. One hour after the administration they were allowed access to food, with no restriction on water being made throughout the study period. The investigation was terminated 24 hours after the ^59Fe ferritin administration when rats were sacrificed and their livers and gastrointestinal tracts, including all contents including faeces, were removed for gamma counting.

The conditions of data set [3]: in vivo; cited from earlier work.
Data set [4] can be described thus: pM for Iron III (affinity for iron as Fe III). The conditions noted are these: negative log ferric ion concentration; total iron 10^-6 M, ligand 10^-5 M. Type of data set: physicochemical. From the text: The present inventors now have provided a group of 3-hydroxypyridin-4-one iron chelators having improved properties as compared to the prior art as assessed against the criteria set out above. […] Preferred compounds have efficiency of iron mobilisation of in excess of 52% when given orally to rats. […]

A short description of data set [5]: Distribution coefficient DpH7.4 (Kpart), octanol/MOPS pH 7.4. The data set is classed as physicochemical. From the text: The requirements for orally active chelators are set out in Table 4 of Hider et al as (i) good absorption from tile gastrointestinal tract, (ii) efficient liver extraction, (iii) poor entry into peripheral cells such as thymus, muscle, heart and bone marrow and (iv) poor ability to penetrate the blood-brain barrier and maternal/placental barriers.

The conditions of data set [6]: cited from earlier work.
The nature of another data set: pKa of the ligand. Type of data set: physicochemical.
Setting [7] is: method marked (p), first pKa, read-out: pKa, first value (p).
Setting [8] is: method marked (s), first pKa, read-out: pKa, first value (s).
The mark [9] stands for this setting: method marked (p), second pKa, read-out: pKa, second value (p).
Setting [10] is: method marked (s), second pKa, read-out: pKa, second value (s).

On to `Cc1c(O)c(=O)ccn1C` [CP20, reference compound], for which the Logβ3 in data set [1] turned out to be 36.3. Moreover, in data set [2] (150 μmol/kg), the “Iron Mobilisation” value was determined as 6.3 ± 2.1% and the Efficacy is recorded as 2.4%. Further, in data set [2] (300 μmol/kg), the “Iron Mobilisation” value is 9.2 ± 2.2% and the Efficacy came out at 5.4%. In data set [2] (450 μmol/kg), the “Iron Mobilisation” value was 13.4 ± 5.2% and the Efficacy was determined as 9.5%. In data set [3], the “crossing of placenta and blood brain barrier” value is “able to cross the placenta and blood brain barrier”; the “phase II metabolism” value is on record as “rapidly inactivated by phase II metabolism”. Besides, the “pMpH 7.45” value in data set [4] is recorded as 19.4. Moreover, in data set [5], the “DpH 7.4” value is given as 0.17. For the same compound, the effectiveness in man result in data set [6] is “effective in man”. In addition, the “pKa, first value (s)” value in “pKa of the ligand” (method marked (s), first pKa) worked out at 3.56. Moreover, the “pKa, second value (s)” value in the data set “pKa of the ligand” (method marked (s), second pKa) was 9.64.
Compound `CCc1c(O)c(=O)ccn1CC` [CP94, 1,2-diethyl-3-hydroxypyridin-4-one, reference compound] gave a Logβ3 in data set [1] of 36.7. For the same compound, in data set [2] (150 μmol/kg), the “Iron Mobilisation” value was 16.5 ± 6.2% and the Efficacy came to 12.6%. In addition, in data set [2] (300 μmol/kg), the “Iron Mobilisation” value was 35.7 ± 4.4% and the Efficacy was found to be 31.8%. Besides, in data set [2] (450 μmol/kg), the “Iron Mobilisation” value is recorded as 59.7 ± 10.9% and the Efficacy was determined as 55.8%. In addition, in data set [3], the “crossing of placenta and blood brain barrier” value is “able to cross the placenta and blood brain barrier”; the “phase II metabolism” value was “rapidly inactivated by phase II metabolism”. In addition, the “pMpH 7.45” value in data set [4] is recorded as 19.7. Also, the “DpH 7.4” value in data set [5] turned out to be 1.79. The effectiveness in man result in data set [6] is reported as “effective in man”.
`O=c1ccn(CCCO)c(CO)c1O` [CP366, 1-(3-hydroxypropyl)-2-hydroxymethyl-3-hydroxy-pyridin-4(1H)-one]: the melting point lay in the range of 138 to 139 °C. Besides, the Logβ3 in data set [1] is given as 35.25. In addition, the “pMpH 7.45” value in data set [4] came to 20.69. In addition, the “DpH 7.4” value in data set [5] is listed as 0.056. Also, in “pKa of the ligand” (method marked (s), first pKa), the “pKa, first value (s)” value was 2.87. In addition, the “pKa, second value (s)” value in “pKa of the ligand” (method marked (s), second pKa) stood at 9.14.
Compound `CCC(O)c1c(O)c(=O)cc(C)n1C` (stereo not shown) [CP374, 1,6-Dimethyl-2-(1-hydroxypropyl)-3-hydroxy-pyridin-4(1H)-one hydrochloride] registered a Logβ3 in data set [1] of 35.03. Also, the “Iron Mobilisation” value amounted to 34.0 ± 4.3% in data set [2] (150 μmol/kg) and 60.4 ± 15.6% in data set [2] (450 μmol/kg). The results for the Efficacy in data set [2] (150 μmol/kg) and in data set [2] (450 μmol/kg) were 30.1% and 56.5%, respectively. Moreover, in data set [4], the “pMpH 7.45” value is on record as 20.95. For the same compound, in data set [5], the “DpH 7.4” value worked out at 0.73. Moreover, the pKa in “pKa of the ligand” (setting [7]) stood at 2.76; in the data set “pKa of the ligand” (setting [8]), 2.78. In addition, in the data set “pKa of the ligand” (method marked (s), second pKa), the “pKa, second value (s)” value turned out to be 8.98.
For `COCc1cc(=O)c(O)c(COC)n1C` [CP388, 2,6-Dimethoxymethyl-1-methyl-3-hydroxypyridin-4(1H)-one hydrochloride], the Logβ3 in data set [1] turned out to be 34.5. Further, the “pMpH 7.45” value in data set [4] is reported as 21.1. The “DpH 7.4” value in data set [5] was 0.40. In addition, the pKa in “pKa of the ligand” (setting [7]) was determined as 2.93; in “pKa of the ligand” (setting [9]) it was 8.87; in the data set “pKa of the ligand” (setting [8]) it was 2.73; in the data set “pKa of the ligand” (setting [10]) it was 8.77.
As for `CNC(=O)c1c(O)c(=O)cc(C)n1C` [CP502, 1,6-Dimethyl-3-hydroxy-4(1H)-pyridinone-2-carboxy-(N-methyl)-amide hydrochloride], in data set [1], the Logβ3 is recorded as 35.78. Also, the “pMpH 7.45” value in data set [4] is listed as 23.42. Further, the “DpH 7.4” value in data set [5] worked out at 0.04. Further, the pKa in the data set “pKa of the ligand” (setting [7]) amounted to 2.83; in the data set “pKa of the ligand” (setting [9]), 8.38; in “pKa of the ligand” (setting [8]) it was 2.64; in the data set “pKa of the ligand” (setting [10]), 8.36.
Turning to `Cc1cc(=O)c(O)c(C(=O)NC(C)C)n1C` [CP504, 1,6-Dimethyl-3-hydroxy-4(1H)-pyridinone-2-carboxy-(N-isopropyl)-amide hydrochloride], the Logβ3 in data set [1] stood at 35.34. Besides, in data set [4], the “pMpH 7.45” value amounted to 22.46. Further, the “DpH 7.4” value in data set [5] was determined as 0.30. For the same compound, the pKa is 2.81 in “pKa of the ligand” (setting [7]), 8.74 in the data set “pKa of the ligand” (setting [9]), 2.64 in the data set “pKa of the ligand” (setting [8]) and 8.56 in the data set “pKa of the ligand” (setting [10]).
Regarding `COCCNC(=O)c1c(O)c(=O)cc(C)n1C` [CP506, 1,6-Dimethyl-3-hydroxy-4(1H)-pyridinone-2-carboxy-(N-2′-methoxyethyl)-amide hydrochloride], in data set [1], the Logβ3 was determined as 34.88. In data set [4], the “pMpH 7.45” value was 22.57. In data set [5], the “DpH 7.4” value is given as 0.04. Besides, the pKa is 2.62 in the data set “pKa of the ligand” (setting [7]), 8.34 in “pKa of the ligand” (setting [9]), 2.5 in the data set “pKa of the ligand” (setting [8]) and 8.35 in “pKa of the ligand” (setting [10]).
For `Cc1cc(=O)c(O)c(C(=O)NCCO)n1C` [CP507, 1,6-Dimethyl-3-hydroxy-4(1H)-pyridinone-2-carboxy-(N-2′-hydroxyethyl)-amide hydrochloride], in data set [1], the Logβ3 is given as 34.63. For the same compound, the “pMpH 7.45” value in data set [4] is 22.73. The “DpH 7.4” value in data set [5] is 0.02. In addition, the pKa in “pKa of the ligand” (setting [7]) came out at 2.65; in “pKa of the ligand” (setting [9]) it was 8.28; in “pKa of the ligand” (setting [8]), 2.57; in the data set “pKa of the ligand” (setting [10]), 8.19.
Take `Cc1cc(=O)c(O)c(C(=O)N(C)C)n1C` [CP508, 1,6-Dimethyl-3-hydroxy-4(1H)-pyridinone-2-carboxy-(N,N-dimethyl)-amide hydrochloride]: the Logβ3 in data set [1] was determined as 35.13. Besides, the “pMpH 7.45” value in data set [4] stood at 23.46. In addition, in data set [5], the “DpH 7.4” value came out at 0.16. The pKa was 2.61 in “pKa of the ligand” (setting [7]), 8.1 in “pKa of the ligand” (setting [9]), 2.61 in “pKa of the ligand” (setting [8]) and 8.1 in “pKa of the ligand” (setting [10]).
In data set [1], `O=c1ccn(CCO)c(C(O)c2ccccc2)c1O` (stereo not shown) [Novartis bidentate ligand (3), reference compound] registered a Logβ3 of 35.57. Also, the “pMpH 7.45” value in data set [4] came out at 23.15. For the same compound, the “DpH 7.4” value in data set [5] is listed as 2.81. Besides, the pKa in “pKa of the ligand” (setting [7]) was 2.59; in the data set “pKa of the ligand” (setting [9]), 8.38; in “pKa of the ligand” (setting [8]) it was 2.6; in the data set “pKa of the ligand” (setting [10]), 8.39.

One may read the melting point as the temperature, or range, at which the solid turns liquid. By pKa is commonly meant the pH at which an ionisable group is half protonated.
